Data: patent US9101679B2, “Sterilization method and apparatus” (TS03 Inc., priority 2009, dated 2015)
Entries after “also recorded” stand apart in the source; their conditions may differ. Read-outs that look alike come from different tables or passages of the source.

What was measured:
spores [1] = assay: Sterilization by evaporated hydrogen peroxide solution alone or followed by ozone; format: cell-based
Source text: Indeed the evaporated hydrogen peroxide solution injected into the chamber is not sufficient to achieve sterilization, although a 4 log reduction in spores has been observed. […] Such complete sterilization could not be achieved using only the injection of evaporated hydrogen peroxide solution, independent of the amount of hydrogen peroxide solution used and the concentration of the solution. Moreover, high concentrations of hydrogen peroxide reduce compatibility with some instruments. […] In fact the dwelling time after hydrogen peroxide injection appears to have no effect on sterilization efficacy.

[2] = tested on: G. stearothermophilus ATCC 7953 spores; assay: Sterile efficacy on inoculated lumens, half-cycle of each TSO3 cycle; format: cell-based; conditions: for sterility result in words, gas replacing ozone after hydrogen peroxide injection: all three cycles, gas injected after hydrogen peroxide
Source text: The test evaluated the sterile efficacy on inoculated devices. Inoculated wires were inserted in tubing and afterwards in pouches. The pouches were also placed at the top of the loading carriage in the sterilization chamber.
The same loads were used for the three series of tests performed: ozone, oxygen and nitric oxide. The length, diameter, material and type of tubing were different for each cycle and are described in Table 3. The inoculated lumens were placed in a special load representing an average load for the three cycles.
The lumens used to evaluate the sterile efficacy were inoculated according to protocol MCB-09-A07 rev 9. The wire method was used. The wires were inoculated with 10 μL of a G. stearothermophilus ATCC 7953 spores suspension of 1.0×10^6 to 2.5×10^6 UFC/10 μL. The inoculated wires were left to dry overnight at normal room conditions.
Test loads were exposed to a half-cycle of each cycle. For the experiment with oxygen and nitrogen oxide, ozone was replaced by the gas to be tested. A burette was also plugged on the valve system in order to precisely determine the H2O2 injected volume.
The baseline of sterile efficacy on the inoculated lumens used in each cycle was established using only hydrogen peroxide. Cycles using hydrogen peroxide and ozone were performed to compare the efficacy of oxygen and nitrogen oxide to ozone.
The oxygen was injected in the chamber using the same system as that used for ozone. The ozone generator was turned off.
The NO was injected however directly in the chamber from an independent NO cylinder (Praxair). […] By doing so, the gas was forced into the chamber.
All tests were performed outside in order to limit possible dangers from accidental leaks. A NO detector was used. A long tube was plugged into the catalyst converter unit, to allow the NO to be eliminated far from the set-up. A calculation was performed (see below) to determine the number of valve injections necessary to obtain a concentration of 2 mg/L. • Valve volume: 3.3 mL (Volume calculated in R-1937) • NO Density NTP: 1.25 g/L • Sterilisation chamber volume: 125 L • Finale concentration desired: 2 mg/L • NO Pressure: 3 psig • Corrected volume: 3300×((14.7+3)/14.7)=3973.2 μL • Mass to be injected: 0.002 g/L×125 L=0.25 gno • Masse injected by each injection: 1.25 g/L×0.003974 L=4.9665×10^−3 g/injection • Number of injections required: 0.25 gno/4.9665×10^−3 g/injection=50 injections

spores [3] = conditions: 3.4 mL per pulse; half-cycle of Cycle 1; Teflon 1 mm x 80 cm
Procedure: In order to inject a high volume at once, a valve separated by Teflon tubing was used instead of the normally used microvalve (TSO3 #: AM-213-001). The tubing length was determined by the volume to be injected. Since the volume contained in the valve is significant, two sizes of valves were used. The first type (TSO3 #: CM-900-157) with an orifice of 0.062″, was used for a volume up to 1.5 mL. The second Neptune type, with an orifice of 0.156″, (TSO3 #: CM-900-156), was used for a volume up to 3.5 mL. The larger valve size also helps to push the large liquid volume into the chamber. For the 35 μL volume, a Burket 7616 micropump (TSO3 #: CM-113-001) was used. For the 23 μL volume, a larger, specially-made block was used.
Two cycles were used for this experiment. To test the sterility, Cycle 1 (half-cycle) was used, where the injection step of the conditioning phase was modified with a variation in volume and pulse for each attempt, as previously described. As for the condensation effect, Cycle 3, consisting of four phases, was utilized. This cycle was chosen due to the fact that a greater quantity of hydrogen peroxide was injected for the cycle, making it the worst case scenario. […] After exposure to a half-cycle of Cycle 1, the sterility of each lumen was determined according to MCB-09-A04 rev. 7 by quantitative recovery using the ultrasound technique followed by filtration. […]

[4] = tested on: spores of G. stearothermophilus; conditions: cited from earlier work
[5] = tested on: spores of G. stearothermophilus; assay: Estimate of spores inactivated by NO / NO2 alone; format: cell-based
Procedure: In this experiment, the amount of NO injected was 2 mg/L. Considering that all NO molecules were transformed in NO2, a D-value of 1.9 minutes for a concentration of 2 mg/L of NO2, only 2.5 log of spores would have been inactivated by the NO2. This less than the 6 log present on the inoculated devices. In reality, the conversion rate of NO in NO2 is probably not 100%, and the D-value is more than 1.9 minutes. Thus the number of spores inactivated by NO only is probably more around 1 log.

With `OO` [H2O2, hydrogen peroxide] the reduction in spores (spores [1]; evaporated hydrogen peroxide solution only, no ozone) was 4 log, the “Sterile lumens Cycle 1” value ([2]; half-cycle of Cycle 1, Teflon lumen 1 mm x 80 cm, O3 or O2 2 mg/L, NO 2 mg/L) was 50% and the “Sterile lumens Cycle 2” value ([2]; half-cycle of Cycle 2, stainless steel lumen 1 mm x 50 cm, O3 or O2 10 mg/L, NO 2 mg/L) was 12.5%. The “Sterile lumens Cycle 3” value ([2]; half-cycle of Cycle 3, Teflon lumen 1 mm x 110 cm, O3 or O2 3 mg/L, NO 2 mg/L) was 16% and the spore count (spores [3]) was “zero”.
For `[O]N=O` [NO2, nitrogen dioxide], the D-value ([4]; 3 mg/L) is given as “approximately 1.9 minutes”, the D-value ([4]; 5.12 mg/L NO2) is given as 0.3 min and the “spores inactivated by the NO2” value ([5]; assuming all NO (2 mg/L) transformed into NO2 and a D-value of 1.9 minutes) is given as 2.5 log.
With `O=O` [oxygen] the “sterility result in words, gas replacing ozone after hydrogen peroxide injection” value [2] was “ineffective to replace ozone; also recorded: Sterility was not achieved in two of the three cycles”.
For `O=[O+][O-]` [ozone], the “sterilization result in words” value (spores [1]; 1-10 mg of ozone per liter of sterilization atmosphere added after evaporated hydrogen peroxide, SAL 10^-6) was “full and complete sterilization”.
With Nitrogen monoxide the “sterility result in words, gas replacing ozone after hydrogen peroxide injection” value [2] was “complete sterility in all three cycles” and the “spores inactivated by NO only” value ([5]; 2 mg/L NO, conversion to NO2 probably not 100%) was “around 1 log”.
